Results on five compounds are retold here after patent publication US4457929A, “3-Quaternary ammonium methyl)-substituted cephalosporin derivatives” (Bristol-Myers Company, priority 1982, dated 1984).

Structures are written as SMILES.

In series [1] the test system is Ps. aeruginosa (6 strains). Kind of series: MIC by two-fold serial agar dilution, group (G-)-III. Type of series: cell-based. The conditions noted are these: Mueller-Hinton agar, Example 1: two different batches; for MIC: Pseudomonas aeruginosa, read-out: Geometric Mean of MIC (G-)-III. The text has this: (§1) The preferred compounds of Formula I are those in which R^1 is hydrogen, R^2 is methyl, R^3 is methyl or ethyl, and R^4 is methyl, ethyl, 2-hydroxyethyl, 2-(dimethylamino)ethyl, allyl or pyridylmethyl. Particularly preferred compounds are those in which R^1 is hydrogen, R^2 and R^3 are methyl, and R^4 is methyl, 2-hydroxyethyl or allyl. The most preferred compound is that in which R^1 is hydrogen and R^2, R^3 and R^4 are methyl. In the primary evaluation of the preferred compounds of this invention, the Minimum Inhibitory Concentrations (MIC's) of the compounds were determined by the two-fold serial agar dilution method in Mueller-Hinton agar against 32 strains of test organisms in six groups.
(G-)III: Ps. aeruginosa (6 strains)
(In general: In agar dilution the substance is mixed into plates at graded concentrations.)

For another series, the system named is N. gonorrhoeae (4). In words: In vitro activity against fastidious bacteria in GC agar: N. gonorrhoeae. Particulars: Neisseria gonorrhoeae, 4 strains, read-out: Geometric Mean of MIC. Type of series: cell-based. As for the experimental part: (§2) The in vitro activity of the most preferred Compound Ia against 31 strains of fastidious bacteria was determined in GC agar, and the results are shown in Table 3.

Series [2] can be described thus: Mouse blood levels following a single intramuscular injection. It counts as in vivo. The conditions noted are these: im, mice, 20 mg/kg. On the procedure:
The absorption of the most preferred Compound Ia (prepared in Example 1) was determined in mice following a single intramuscular injection of the test compound (dissolved in 0.1M phosphate buffer; pH 7) at a dosage of 20 mg/kg. Blood samples were collected from the orbital sinuses into heparinized capillary tubes and assayed in Mueller-Hinton medium using Morganella morganii A9695 as the test organism. The blood levels at various time intervals, the half-life values (t1/2) and the areas under the curve (AUC) are shown in Table 2.

The test system of series [3] is H. influenzae (3) (ampicillin resistant). In words: In vitro activity against fastidious bacteria in GC agar: H. influenzae (ampicillin resistant). It counts as cell-based. The conditions noted are these: Haemophilus influenzae, 3 strains, read-out: Geometric Mean of MIC. On the procedure: as §2
Series [4] deals with Cephalothinsensitive E. coli (2 strains), Kl. pneumoniae (1 strain) and Pr. mirabilis (2 strains). Kind of series: MIC by two-fold serial agar dilution, group (G-)-Ia. Type of series: cell-based. Particulars: Mueller-Hinton agar, cephalothin-sensitive, 5 strains, Example 1: two different batches; for MIC: read-out: Geometric Mean of MIC (G-)-Ia.
Source text: as §1
(G-)Ia: Cephalothinsensitive E. coli (2 strains), Kl. pneumoniae (1
strain) and Pr. mirabilis (2 strains)

In series [5] the test system is H. influenzae (7) (ampicillin sensitive). Kind of series: In vitro activity against fastidious bacteria in GC agar: H. influenzae (ampicillin sensitive). Type of series: cell-based. The conditions noted are these: Haemophilus influenzae, 7 strains, read-out: Geometric Mean of MIC. As for the experimental part: as §2
A further series concerns S. pyogenes (6 strains). Kind of series: In vitro activity against fastidious bacteria in GC agar: S. pyogenes. Type of series: cell-based. Particulars: Streptococcus pyogenes, read-out: Geometric Mean of MIC. On the procedure: as §2
The subject of series [6] is Cephalothinresistant E. coli (3 strains) and Kl. pneumoniae (3 strains). Kind of series: MIC by two-fold serial agar dilution, group (G-)-Ib. Type of series: cell-based. Particulars: cephalothin-resistant, 6 strains, Example 1: two different batches; for MIC: Escherichia coli, read-out: Geometric Mean of MIC (G-)-Ib, Mueller-Hinton agar.
Source text: as §1
(G-)Ib: Cephalothinresistant E. coli (3 strains) and Kl. pneumoniae (3

Series [7] concerns Pr. morganii (1 strain), Ent. cloacae (2 strains) and Ser. marcescens (2 strains). Kind of series: MIC by two-fold serial agar dilution, group (G-)-II. Type of series: cell-based. Particulars: Mueller-Hinton agar; 5 strains; Example 1: two different batches; read-out: Geometric Mean of MIC (G-)-II.
Source text: as §1
(G-)II: Pr. morganii (1 strain), Ent. cloacae (2 strains) and Ser.

Series [8] concerns Penicillinresistant S. aureus (5 strains). In words: MIC by two-fold serial agar dilution, group (G+)-Ib. It counts as cell-based. Particulars: Staphylococcus aureus, Mueller-Hinton agar, penicillin-resistant S. aureus, Example 1: two different batches, read-out: Geometric Mean of MIC (G+)-Ib.
Source text: as §1
(G+)Ib: Penicillinresistant S. aureus (5 strains)

A further series deals with S. pneumoniae (6). Kind of series: In vitro activity against fastidious bacteria in GC agar: S. pneumoniae. It counts as cell-based. The conditions noted are these: Streptococcus pneumoniae, 6 strains, read-out: Geometric Mean of MIC. On the procedure: as §2
The next series concerns N. meningitidis (5). In words: In vitro activity against fastidious bacteria in GC agar: N. meningitidis. Type of series: cell-based. The conditions noted are these: Neisseria meningitidis, 5 strains, read-out: Geometric Mean of MIC. As for the experimental part:
as §2

Series [9] has as its system Penicillinsensitive S. aureus (5 strains). In words: MIC by two-fold serial agar dilution, group (G+)-Ia. It counts as cell-based. The conditions noted are these: Mueller-Hinton agar, penicillin-sensitive S. aureus, Example 1: two different batches; for MIC: Staphylococcus aureus, read-out: Geometric Mean of MIC (G+)-Ia.
Source text: as §1
(G+)Ia: Penicillinsensitive S. aureus (5 strains)

With `CO/N=C(\C(=O)NC1C(=O)N2C(C(=O)[O-])=C(C[N+](C)(C)C)CSC12)c1csc(N)n1` (centres unmarked) [Example 1, 7-[(Z)-2-(2-Aminothiazol-4-yl)-2-methoxyiminoacetamido]-3-(trimethylammonium)methyl-3-cephem-4-carboxylate], the “Geometric Mean of MIC (G-)-III” value in [1] worked out at 4.0 µg/mL. Moreover, the MIC in series [1] was found to be 3.2 µg/mL; with N. gonorrhoeae (4), 0.013 µg/mL; in series [3], 0.2 µg/mL; in series [4], 0.033 µg/mL; in [5], 0.013 µg/mL; with S. pyogenes (6 strains) it was 0.013 µg/mL. Besides, the MIC in [6] came out at 0.25 µg/mL; in series [7], 0.69 µg/mL; in series [8] it was 3.6 µg/mL; with S. pneumoniae (6), 0.013 µg/mL; with N. meningitidis (5) it was 0.016 µg/mL; in series [9], 1.1 µg/mL. For the same compound, the AUC (commonly the area under the concentration-time curve, a measure of exposure) in [2] is 10000 ng·h/mL. Moreover, in [2], the half-life (commonly how long it takes for the measured level to halve) was found to be 24 min. The concentration at 10 min in series [2] (10 minutes, read-out: Blood levels at minutes after administration: 10) is 14000 ng/mL. Also, the concentration at 20 min in [2] (20 minutes, read-out: Blood levels at minutes after administration: 20) came out at 12000 ng/mL. Moreover, the concentration at 0.5 h in series [2] (30 minutes, read-out: Blood levels at minutes after administration: 30) turned out to be 8800 ng/mL. Moreover, in [2] (40 minutes, read-out: Blood levels at minutes after administration: 40), the concentration at 40 min turned out to be 7500 ng/mL. Besides, the concentration at 50 min in [2] (50 minutes, read-out: Blood levels at minutes after administration: 50) is 4700 ng/mL. For the same compound, in series [2] (60 minutes, read-out: Blood levels at minutes after administration: 60), the concentration at 1 h worked out at 4400 ng/mL. Besides, the concentration at 1.5 h in [2] (90 minutes, read-out: Blood levels at minutes after administration: 90) was found to be 1500 ng/mL. In addition, the concentration at 2 h in [2] (120 minutes, read-out: Blood levels at minutes after administration: 120) turned out to be 740 ng/mL. For the same compound, the “Geometric Mean of MIC (G-)-Ia” value in series [4] is 0.029 µg/mL. The “Geometric Mean of MIC (G-)-Ib” value in [6] (Mueller-Hinton agar) worked out at 0.20 µg/mL. For the same compound, in series [9], the “Geometric Mean of MIC (G+)-Ia” value turned out to be 1.6 µg/mL.

Regarding `CO/N=C(\C(=O)NC1C(=O)N2C(C(=O)[O-])=C(C[N+](C)(C)CCO)CSC12)c1csc(N)n1` (centres unmarked) [Example 2, 7-[(Z)-2-(2-Aminothiazol-4-yl)-2-methoxyiminoacetamido]-3-[N,N-dimethyl-N-(2-hydroxyethyl)ammonium]methyl-3-cephem-4-carboxylate], the MIC came out at 3.5 µg/mL in [1]; 0.038 µg/mL in series [4]; 0.18 µg/mL in series [6]; 0.6 µg/mL in [7]; 4.7 µg/mL in series [8]; 1.6 µg/mL in series [9].

Consider `C=CC[N+](C)(C)CC1=C(C(=O)[O-])N2C(=O)C(NC(=O)/C(=N\OC)c3csc(N)n3)C2SC1` (centres unmarked) [Example 3, 7-[(Z)-2-(2-Aminothiazol-4-yl)-2-methoxyiminoacetamido]-3-(N,N-dimethyl-N-allylammonium)methyl-3-cephem-4-carboxylate], for which the MIC in series [1] was determined as 5.6 µg/mL; in series [4], 0.044 µg/mL; in series [6], 0.22 µg/mL; in series [7] it was 0.69 µg/mL; in series [8], 3.6 µg/mL; in [9], 1.4 µg/mL.

For `CO/N=C(\C(=O)NC1C(=O)N2C(C(=O)[O-])=C(C[N+](C)(C)Cc3cccnc3)CSC12)c1csc(N)n1` (centres unmarked) [Example 4, 7-[(Z)-2-(2-Aminothiazol-4-yl)-2-methoxyiminoacetamido]-3-[N,N-dimethyl-N-(3-pyridylmethyl)ammonium]methyl-3-cephem-4-carboxylate], the MIC in series [1] came out at 7.1 µg/mL; in [4] it was 0.057 µg/mL; in series [6], 0.22 µg/mL; in [7], 0.69 µg/mL; in series [8], 4.7 µg/mL; in series [9] it was 2.1 µg/mL.

In the case of `CCO/N=C(\C(=O)NC1C(=O)N2C(C(=O)[O-])=C(C[N+](C)(C)C)CSC12)c1csc(N)n1` (centres unmarked) [Example 8, 7-[(Z)-2-(2-Aminothiazol-4-yl)-2-ethoxyiminoacetamido]-3-(trimethylammonium)methyl-3-cephem-4-carboxylate], the MIC is 7.9 µg/mL in series [1]; 0.087 µg/mL in series [4]; 0.5 µg/mL in [6]; 1.4 µg/mL in series [7]; 5.5 µg/mL in series [8]; 2.1 µg/mL in series [9].
